Results taken from patent EP0966414B1, “TRIARYLMETHYL FREE RADICALS AS IMAGE ENHANCING AGENTS” (Amersham Health AS, priority 1997, dated 1998).

Assay: ESR spectrum linewidth in aqueous solution
Format: physicochemical
Conditions: 100 G, singlet
Method: For the method according to the invention the preferred radicals are those which have relatively few transitions, e.g. less than 15, preferably less than 10, in their ESR spectra and radicals having narrow linewidth ESR transitions, e.g. up to 500 mG, preferably less than 150 mG, especially less than 60 mG and particularly less than 25mG, are especially preferred. (The linewidths referred to are conveniently the intrinsic linewidths (full width at half maximum in the absorption spectrum) under ambient conditions).

Substance	ESR linewidth (1.0 mM in H2O) [mg]	ESR linewidth (2.5 mM aqueous solution) [mg]
Tris (8-carboxymethylthio-2,2,6,6-(2-(1-hydroxyethyl)) benzo[1,2-d:4,5-d']bis(1,3)dithiole-4-yl)methyl sodium salt [Example 9]	–	195
Tris(8-[N,N-bis(2,3-dihydroxypropyl)aminocarbonylmethylthiol-2,2,6,6-tetra-(2-(1-hydroxyethyl))benzo[1,2-d:4,5-d'] bis(1,3)dithiole-4-yl)methyl [Example 11]	274	–
Tris(8-carboxy-2,2,6,6-tetra-(hydroxyethyl)benzo[1,2-d:4,5-d']bis(1,3)dithiole-4-yl)methyl sodium salt [Example 7]	160	–

Second part, the substance after the results:

ESR linewidth (1.0 mM in H2O) [mg]	ESR linewidth (2.5 mM aqueous solution) [mg]	Substance
70	–	Tris (8-carboxyl-2,2,6,6-tetra (2-(1-hydroxy-2.2-d2-ethyl))-benzo[1,2-d:4,5-d']bis(1,3)dithiole -4-yl)methyl sodium salt [Example 21]
226	–	Tris(8-carboxyl-2,2,6,6-tetra(hydroxyethyl)-benzo[1,2-d:4,5-d']bis(1,3)dithiole-4-yl)methyl N,N-bis(1,2-dihydroxyprop-3-yl)-acetamid-2-yl-ester [Example 23]
